According to patent EP0651636B1, “CHEMOTHERAPY FOR CANCER” (THE JOHNS HOPKINS UNIVERSITY, priority 1992, dated 1994):
pIC50, pKi: −log10 of the molar value. In brackets after ≈: the same amount, converted by molar mass. Like-named read-outs stand apart in the source and are kept apart here.

Assays:
[1] = test system: SK-BR-3 human mammary carcinoma cells; assay: Crystal violet growth inhibition assay, 48 hour exposure; type: cell-based
Method: (§1) This experiment was performed using the crystal violet growth inhibition assay. Cells with varying degrees of FAS activity were plated at 5000 cells per well in 96 well plates in RPMI-1640 with 10% heat-inactivated fetal bovine serum. After 72 hours of incubation in a humidified 95% air: 5% CO2 atmosphere, varying concentrations (0-500 µg/ml) of TOFA (5-tetradecyloxyl)-2-furoic acid were added and cultures were re-incubated for 48 hours. Plates were then removed and stained with crystal violet as described. Absorbance readings were averaged for each concentration of agent (n=4), control (n=8), and background (n=8). Background readings were subtracted. The concentration of TOFA is plotted against growth (as % of control growth) in Figure 15.
In these experiments, cells were plated at 5000 cells per well in a 96-well microtiter plate and maintained in RPMI-1640 with 10% heat-inactivated fetal bovine serum for 72 hours. Next, the compounds indicated in Table 4 were added, and cells were incubated for an additional 48 hours. Growth inhibition was then measured using the crystal violet method.

ZR-75-1 = assay: as above; type: cell-based; settings: Homo sapiens, read-out: ID50 (the source's name)
Method: as §1

SW480 = assay: as above; type: cell-based; settings: Homo sapiens, read-out: ID50 (the source's name)
Method: as §1

H'27 = assay: as above; type: cell-based; settings: Homo sapiens, read-out: ID50 (the source's name)
Method: as §1

H125 lung carcinoma line = assay: Growth inhibition assay without oleic acid, single 24 h time point; type: cell-based; settings: no oleic acid, line with 11.6 picomoles per minute enzyme activity
Method: (§2) In vitro growth inhibition assays for OA-519 inhibition were performed using ZR-75-1 cells or normal human fibroblasts which were grown to confluence, and then 25,000 cells were plated in 1:1 conditioned:fresh medium (RPMI with 10% fetal calf serum) supplemented at a physiologic level to 0.5 millimolar oleic acid bound to previously delipidized bovine serum albumin. Cells were allowed to attach and grow overnight. At time 0, drugs diluted in RPMI medium with 10% fetal calf serum were added to achieve the following concentrations: 50 µg/ml to 0.01 µg/ml with serial two-fold dilutions including no drug and empty well controls. Each concentration was performed in quadruplicate and time points were taken at 4, 8, 24, and 48 h. After drug treatment, cells were stained with crystal violet, solubilized in SDS, and read on a Molecular Diagnostics automated plate reader at 570 nm.
Growth Inhibition Assay: Anti-proliferative activity of cerulenin for each cell line was determined using the same assay and drug concentrations described in Example 5, except that no oleic acid was added and a single 24 h time point was taken.

MCF-7 cells [2] = assay: 14C-acetate incorporation into cholesterol; type: cell-based, human; settings: cerulenin 0, 2.5, 5.0 or 10.0 µg/ml; 6 hours
Method: (§3) Measurement of endogenous fatty acid incorporation into acyl-glycerides: For each cell type, 200,000 cells were plated in triplicate for non-polar and polar lipid analysis. Following overnight growth, each well of cells was incubated for 2 hours with 1 µCi ^14C acetate. ^14C-labeled lipids were extracted as above, and dried under N2. For analysis of non-polar lipids, samples were resuspended in 10 ul chloroform and spotted on silica gel N-HR (Brinkmann) and chromatographed in hexane:ethyl ether:acetic acid, 65:25:4 by volume. Cholesterol, palmitic acid, tripalmitin, and cholesterol palmitate (Matreya) were run as controls at 50 µg each. […] 50 µg each of cholesterol, phosphatidyl ethanolamine, lecithin, and lysolecithin (Matreya) were run as controls. ^14C-labeled lipids were detected and quantified using a Bioscan System 2000 imaging scanner with Autochanger 3000. […] Phosphatidylcholine and triglycerides were the predominant acyl-glycerides detected.
(§4) Measurement of endogenous fatty acid incorporation into acyl-glycerides and cholesterol: For each cell type, 200,000 cells were plated in triplicate for non-polar and polar lipid analysis for each drug dose in 24 well plates. […] For the last two hours of cerulenin incubation, 1 µCi of ^14C acetate was added per well. ^14C-labeled lipids were then extracted, chromatographed, and detected as described above. […]

SKBR3 cells = assay: 14C-acetate incorporation into cholesterol; type: cell-based, human; settings: cerulenin 0, 2.5, 5.0 or 10.0 µg/ml; 6 hours
Method: as §3, §4

[3] = biological target: T1, OA-519 fatty acid synthase (Homo sapiens, UniProt P49327); assay: Spectrophotometric fatty acid synthase assay (NADPH oxidation at 340 nm); type: biochemical
T1 construct: endogenous in cells; host or cells: ZR-75-1 breast carcinoma cell line (protein purified from the lysate)
T1 sequence (P49327 2-2511 limits assumed): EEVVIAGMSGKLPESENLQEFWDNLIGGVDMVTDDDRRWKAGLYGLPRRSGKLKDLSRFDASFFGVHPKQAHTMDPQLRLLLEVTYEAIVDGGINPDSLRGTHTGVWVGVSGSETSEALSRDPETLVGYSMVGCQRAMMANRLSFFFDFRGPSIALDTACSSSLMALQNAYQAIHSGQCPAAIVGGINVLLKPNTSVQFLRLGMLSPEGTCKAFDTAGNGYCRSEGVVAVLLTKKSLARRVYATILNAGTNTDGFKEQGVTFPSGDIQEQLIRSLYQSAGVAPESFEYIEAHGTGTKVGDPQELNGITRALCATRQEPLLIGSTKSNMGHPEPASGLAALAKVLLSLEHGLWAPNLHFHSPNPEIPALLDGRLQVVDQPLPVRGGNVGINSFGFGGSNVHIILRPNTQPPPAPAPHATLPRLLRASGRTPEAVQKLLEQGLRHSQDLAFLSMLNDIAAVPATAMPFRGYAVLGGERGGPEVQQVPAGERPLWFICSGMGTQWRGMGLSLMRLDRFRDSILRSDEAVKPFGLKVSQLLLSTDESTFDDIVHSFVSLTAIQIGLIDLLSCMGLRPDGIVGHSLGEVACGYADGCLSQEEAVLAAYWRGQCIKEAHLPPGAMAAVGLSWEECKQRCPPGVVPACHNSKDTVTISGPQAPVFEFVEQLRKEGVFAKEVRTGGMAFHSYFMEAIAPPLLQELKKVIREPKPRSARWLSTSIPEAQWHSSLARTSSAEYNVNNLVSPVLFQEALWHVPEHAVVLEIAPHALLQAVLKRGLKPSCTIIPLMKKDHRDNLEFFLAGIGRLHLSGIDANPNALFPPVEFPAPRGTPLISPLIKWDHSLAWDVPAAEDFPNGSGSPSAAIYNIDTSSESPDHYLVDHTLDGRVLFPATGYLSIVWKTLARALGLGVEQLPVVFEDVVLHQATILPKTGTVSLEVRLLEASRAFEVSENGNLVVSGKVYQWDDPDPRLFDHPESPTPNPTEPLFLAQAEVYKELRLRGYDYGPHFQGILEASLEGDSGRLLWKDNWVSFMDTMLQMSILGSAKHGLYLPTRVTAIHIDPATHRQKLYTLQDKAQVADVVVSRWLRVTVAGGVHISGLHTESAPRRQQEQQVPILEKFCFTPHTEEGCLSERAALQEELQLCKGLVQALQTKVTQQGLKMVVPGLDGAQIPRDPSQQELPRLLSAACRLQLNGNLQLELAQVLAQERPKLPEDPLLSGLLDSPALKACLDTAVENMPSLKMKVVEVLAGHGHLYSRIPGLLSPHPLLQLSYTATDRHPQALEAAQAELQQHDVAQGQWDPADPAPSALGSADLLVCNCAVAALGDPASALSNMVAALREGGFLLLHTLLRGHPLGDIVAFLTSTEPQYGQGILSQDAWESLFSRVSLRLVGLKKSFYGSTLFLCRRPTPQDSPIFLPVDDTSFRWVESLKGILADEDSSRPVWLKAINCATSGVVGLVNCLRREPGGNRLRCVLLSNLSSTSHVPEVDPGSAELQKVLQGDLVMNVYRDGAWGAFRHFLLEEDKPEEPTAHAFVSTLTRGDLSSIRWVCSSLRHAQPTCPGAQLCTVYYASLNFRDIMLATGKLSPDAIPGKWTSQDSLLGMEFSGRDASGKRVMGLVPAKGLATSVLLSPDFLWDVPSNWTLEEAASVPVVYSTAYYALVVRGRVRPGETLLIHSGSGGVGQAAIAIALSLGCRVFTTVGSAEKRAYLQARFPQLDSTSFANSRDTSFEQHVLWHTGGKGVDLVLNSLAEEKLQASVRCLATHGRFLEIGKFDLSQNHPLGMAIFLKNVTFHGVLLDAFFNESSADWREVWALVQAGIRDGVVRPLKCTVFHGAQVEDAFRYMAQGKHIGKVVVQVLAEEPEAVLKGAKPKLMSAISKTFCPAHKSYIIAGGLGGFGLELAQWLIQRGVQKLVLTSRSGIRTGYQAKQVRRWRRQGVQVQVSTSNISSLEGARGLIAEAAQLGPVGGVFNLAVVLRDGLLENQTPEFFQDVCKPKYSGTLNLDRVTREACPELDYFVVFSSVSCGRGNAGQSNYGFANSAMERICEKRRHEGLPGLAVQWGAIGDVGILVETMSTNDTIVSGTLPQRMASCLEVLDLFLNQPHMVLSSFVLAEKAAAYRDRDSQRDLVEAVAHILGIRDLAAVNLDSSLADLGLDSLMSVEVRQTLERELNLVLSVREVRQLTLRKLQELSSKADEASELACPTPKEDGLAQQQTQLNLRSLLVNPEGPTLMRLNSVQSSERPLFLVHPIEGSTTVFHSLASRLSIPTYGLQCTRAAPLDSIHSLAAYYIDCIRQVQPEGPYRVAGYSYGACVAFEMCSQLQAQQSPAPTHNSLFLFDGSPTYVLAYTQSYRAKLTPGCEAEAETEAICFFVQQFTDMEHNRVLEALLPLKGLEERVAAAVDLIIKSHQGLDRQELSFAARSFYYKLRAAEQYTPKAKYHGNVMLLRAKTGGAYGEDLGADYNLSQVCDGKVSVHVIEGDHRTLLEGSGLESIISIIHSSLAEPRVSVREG
Method: Spectrophotometric fatty acid synthase assay: The fatty acid synthase assay was performed in a total volume of 451 µl with the following components: 18.88 µg of purified OA-519 fatty acid synthase from the ZR-75-1 breast carcinoma cell line as described in Example 2, 25 nanomoles acetyl-CoA, 75 nanomoles NADPH, and 50 µl of 1 molar potassium phosphate, pH 6.6 at 25°C. The substrate malonyl-CoA was added at concentrations of 0.5 and 0.6 micromolar in the presence of 0, 9.9, 148, 198, or 397 micromolar cerulenin. HPLC grade water was added to achieve a final volume of 451 µl for all assays.
The enzyme, NADPH, acetyl-CoA, phosphate, cerulenin, and water were combined, vortexed, and incubated in a Beckman DU 650 spectrophotometer at 37°C. Oxidation of NADPH was monitored at 340 nm without substrate to determine background for 2 min. Malonyl-CoA was then added to the reaction cuvette, mixed, and incubated at 37°C while NADPH oxidation was determined at 10 second intervals at 340 nm in the spectrophotometer for a total of 2 min. All determinations were performed in duplicate.
Results: The spectrophotometric data was plotted according to Dixon (Dixon, M., Biochem. J., 55:170-171, 1953) which graphs inhibitor concentration versus 1/v for each given substrate concentration. […]

[4] = test system: six cell lines listed in Table 3; assay: 14C-acetate incorporation into acyl-glycerides; type: cell-based, human; settings: cerulenin 0, 2.5, 5.0 or 10.0 µg/ml; 6 hours
Method: as §3, §4

Dupro-1 = assay: Population doubling assay, viable cell count (trypan blue); type: cell-based; settings: Homo sapiens; 48-hour exposure; relative to untreated cultures; read-out: concentration giving 50% inhibition of population doubling
Method: (§5) TSU-pr1 and Dupro-1 cell lines were plated in RPMI-1640 with 10% fetal bovine serum at 3 X 10^5 and 1 X 10^5 cells respectively/T25 flask in a humidified atmosphere of 95% air: 5% CO2. After 24 hours, initial plating density was measured. In addition, media was replaced (control) or cerulenin was added at 2.5-10 µg/ml to duplicate cultures. Forty-eight hours later, cells were trypsinized and viable cells (trypan blue excluding) counted. The number of population doublings was estimated.

TSU-pr1 = assay: as above; type: cell-based; settings: Homo sapiens, 48-hour exposure, relative to untreated cultures, read-out: concentration giving 50% inhibition of population doubling
Method: as §5

MCF-7 cells [5] = assay: Clonogenic assay; type: cell-based, human; settings: 10 µg/ml; exposure time 24 hours
Method: Clonogenic assay: One million cells were plated in 25 cm sq. flasks. […] Cells were then trypsinized to a single cell suspension and plated in 16 mm dishes at 1000 or 500 cells per dish in triplicate. Following 3 days incubation for ZR-75-1 and MCF-7 cells, and 7 days for SKBR3 cells, colonies were counted and expressed as the percentage of the untreated control.

normal human fibroblasts = assay: In vitro growth inhibition assay (crystal violet) with oleic acid supplement; type: cell-based; settings: for effect on normal human fibroblasts: standard in vitro growth inhibition assays
Method: as §2

ZR-75-1 cells [6] = assay: Oleate rescue from cerulenin growth inhibition; type: cell-based, human; settings: 10 µg/ml cerulenin for 24 hours; 1.5 mM oleate
Method: ZR-75-1 cells (5,000 per well) were plated in 96 well microtiter plates in medium supplemented with 0, 0.5, 1.0 or 1.5 mM oleate bound to delipidized bovine serum albumin at a molar ration of 4:1. After 18 hours incubation, cerulenin was added at a dose of 10 µg/ml. Cells were stained and assayed as in Example 10 after 24 hours (Figure 17, upper line) or 48 hours (lower line). The middle line of Figure 17 represents cells which were re-fed at 24 hours with medium containing the respective oleate concentration without cerulenin and assayed after a 48 hour total incubation. Error bars represent standard error of the mean.

viral HIV protease = viral HIV protease (Human immunodeficiency virus type 1 group M subtype B, UniProt P04585); settings: cited from earlier work
ZR-75-1 cells [7] = assay: In vitro growth inhibition assay (crystal violet) with oleic acid supplement; type: cell-based, human; settings: for effect on carcinoma cells: standard in vitro growth inhibition assays
Method: as §2

condensing enzyme = condensing enzyme (Saccharomyces cerevisiae, UniProt P19097); settings: report of Morisaki, et. al.; cited from earlier work
Vero = settings: cited from earlier work
Raji cells = settings: cited from earlier work
[8] = biological target: rat liver acyl-CoA synthetase; settings: read-out: concentration causing 50% inhibition; cited from earlier work
ZR-75-1 cells [9] = assay: Triacsin-C and cerulenin synergy, crystal violet growth inhibition; type: cell-based; settings: Homo sapiens, ZR-75-1, 24 h
Method: 96 well microtiter plates were plated with ZR-75-1 cells at 25,000 cells/well and incubated overnight (18 h) at 37° C in 5% CO2. Triacsin-C was added to achieve the following micromolar concentrations in the presence of 0, 2.5, 5.0 or 10.0 µg/ml cerulenin: 50, 25, 12.5, 6.2, 3.1, 1.6, 0.8, 0.4, 0.2, 0.1 and 0. Each concentration was performed in quadruplicate. Cells were incubated for 24 hours, washed in PBS, solubilized in 1% SDS, stained with 0.2% crystal violet in 2% ethanol, and read at 490 nm on a Molecular Diagnostics plate reader.

Hela cells = settings: cited from earlier work
[10] = SK-BR-3, 48 h, read-out: ID50 (µg/ml)
[11] = SK-BR-3, 48 hours, dose giving 50% reduction of control absorbance, quadruplicate, read-out: ID50 (the source's name)

Question: Which IC50 [1, 10] does the source give for `CCC/C(=N\OCC)C1=C(O)CC(CC(C)SCC)CC1=O` (centres unmarked) [Sethoxydim] here?
Answer: The IC50 was 9.5 µg/mL (≈ 29 µM).

Question: With `NC(=O)CI` [Iodoacetamide] as the compound, how does the IC50 [1, 10] read?
Answer: The IC50 was 0.3 µg/mL (≈ 1.62 µM).

Question: What does the source list for `CCCCCCCCCCCCCCOc1ccc(C(=O)O)o1` [TOFA, 5 (tetradecyloxy)-2-furoic acid]?
Answer: IC50 [1, 11]: 4.6 µg/mL (≈ 14.2 µM); IC50 (ZR-75-1): 0.8 µg/mL (≈ 2.47 µM); IC50 (SW480): 59.8 µg/mL (≈ 184 µM); IC50 (H'27): 44.7 µg/mL (≈ 138 µM)

Question: Which results are given for `C/C=C/C/C=C/CCC(=O)[C@H]1O[C@H]1C(N)=O` [cerulenin, (2S) (3R) 2,3-epoxy-4-oxo-7,10 dodecadienoyl amide]?
Answer: IC50 [1, 11]: 3.6 µg/mL (≈ 16.1 µM); growth inhibition (H125 lung carcinoma line): 48%; cholesterol synthesis (MCF-7 cells [2]): mild inhibition; cholesterol synthesis (SKBR3 cells): stimulation; pKi ([3]; for the substrate malonyl-CoA, Dixon plot, enzyme purified from ZR-75-1, read-out: apparent Ki): 4.49; type of inhibition of OA-519 fatty acid synthase activity ([3]; purified OA-519): non-competitive inhibitor; incorporation of 14C-acetate into acyl-glycerides [4]: consistently and significantly inhibited in a dose-related manner; IC50 (Dupro-1): 3 to 4 µg/mL (≈ 13.4 to 17.9 µM); IC50 (TSU-pr1): 3 to 4 µg/mL (≈ 13.4 to 17.9 µM); cell kill (MCF-7 cells [5]): greater than three logs of cell kill; effect on growth (normal human fibroblasts; cerulenin 6.25 µg/ml, 0.5 millimolar oleic acid): unaffected; effect on normal human fibroblasts (normal human fibroblasts): little effect; reversal of growth inhibition by oleate (ZR-75-1 cells [6]): virtually complete reversal of growth inhibition; concentration at which inhibition occurs (viral HIV protease): 5 mg/mL; inhibition at 6.25 µg/mL (ZR-75-1 cells [7]; Homo sapiens, ZR-75-1, cerulenin 6.25 µg/ml, by 48 h, 0.5 millimolar oleic acid, read-out: growth inhibited): > 80%; effect on carcinoma cells (ZR-75-1 cells [7]): anti-proliferative

Question: Which “times less potent than cerulenin” value (condensing enzyme) does the source give for `CCCCCCCCC(=O)C1OC1C(N)=O` (centres unmarked) [Tetrahydrocerulenin] here?
Answer: The value was 80-150 times.

Question: What does the source list for `Nc1nc(N)nc(Nc2ccc([As]3SCC(CO)S3)cc2)n1` (centres unmarked) [melarsoprol]?
Answer: effect on normal human fibroblasts (normal human fibroblasts): little effect; effect on carcinoma cells (ZR-75-1 cells [7]): anti-proliferative

Question: For `CCN1C(=O)C=CC1=O` [N-ethylmaleimide], which IC50 [1, 10] is on record?
Answer: The IC50 was 0.9 µg/mL (≈ 7.19 µM).

Question: With `CC(C)(COP(=O)(O)OP(=O)(O)OC[C@H]1O[C@@H](n2cnc3c(N)ncnc32)[C@H](O)[C@@H]1OP(=O)(O)O)[C@@H](O)C(=O)NCCC(=O)NCCSCC(=O)O` [S-carboxymethyl CoA] as the compound, how does the IC50 [1, 11] read?
Answer: Its IC50 is 61.4 µg/mL (≈ 74.4 µM).

Question: With `Cc1cc2c(C(C)C)c(O)c(O)c(C=O)c2c(O)c1-c1c(C)cc2c(C(C)C)c(O)c(O)c(C=O)c2c1O` [Gossypol] as the compound, how does the IC50 [1, 10] read?
Answer: The IC50 was 3.1 µg/mL (≈ 5.98 µM).

Question: Which results are given for `CCC/C=C/C/C=C/C=C/C=NN=NO` [Triacsin C, 1-hydroxy-3-(E, E, E-2', 4', 7' - undecatrienylidine) triazene]?
Answer: growth inhibition (Vero): inhibit growth; concentration causing growth inhibition (Raji cells): 1.0 µM; pIC50 [8]: 5.06; pIC50 (ZR-75-1 cells [9]; cerulenin added at a level approximating its ID50): > 6.00; pIC50 (ZR-75-1 cells [9]; triacsin-C alone, read-out: ID50 (the source's name)): ~4.82; growth inhibition (Hela cells): inhibit growth

Question: Which IC50 [1, 10] does the source give for `O=C(O)C(=O)CBr` [Bromopyruvate] here?
Answer: Its IC50 is 52 µg/mL (≈ 311 µM).
